How the values were obtained:
[1] = Adverse events (CTCAE v5.0), dose reductions and treatment discontinuations; format: in vivo, human; conditions: for patients with dose reduction of the named drug due to AE during the study period: 27 patients
Source text: AE was routinely assessed by the treating physicians at each serum sampling time point and graded according to the […] (CTCAE) Version 5.0 [35]. Additionally, permanent and temporary treatment discontinuations, dose reductions, and corresponding reasons were documented. Further recorded patient data included age, sex, height, weight, smoking status, dosing regimen, co-medication, and relevant laboratory parameters if ordered by the treating physician (platelet count, white blood cell count, absolute neutrophil count, absolute lymphocyte count, hemoglobin, bilirubin, aspartate and alanine aminotransferase, alkaline phosphatase, gamma-glutamyl transferase, amylase, lipase, creatine kinase, phosphate, sodium, glucose, serum creatinine, and estimated glomerular filtration rate). The treatment and frequency of visits were managed by the treating physicians without knowing the measured drug concentrations. AE was not assessed simultaneously with the collection of VAMS samples.

[2] = design: method as in PMID 32283865; conditions: popPK model population value; cited from earlier work
[3] = design: method as in PMID 33846903; conditions: cited from earlier work
[4] = design: method as in PMID 24408395; conditions: cited from earlier work

Row | Compound | patients with dose reduction of the named drug due to AE during the study period [1] [%] | dose reduction n (%) ([1]; none) | permanent treatment discontinuation n (%) ([1]; none) | temporary treatment discontinuation n (%) ([1]; none) | permanent treatment discontinuation n (%) ([1]; reason: adverse events) | CENT (central compartment) volume [2] [L] | CL/F (oral clearance from central compartment) [2] [L/h] | PER (peripheral compartment) volume [2] [L] | Tlag (lag time before beginning of absorption process) [2] [h] | ka (absorption rate constant) [2] [h⁻¹] | protein binding [3] [%] | CYP3A autoinduction: induction half-life [4] | half-life [4] | patients who discontinued the named drug(s) permanently due to AE ([1]; both drugs, or only trametinib) [%]
1 | CC(C)(C)c1nc(-c2cccc(NS(=O)(=O)c3c(F)cccc3F)c2F)c(-c2ccnc(N)n2)s1 [dabrafenib] | 7.4 | 24 (88.9) n (%) | 19 (70.4) n (%) | 17 (63.0) n (%) | 2 (7.4) n (%) | 39.5 | 17.7 | 19.6 | 0.5 | 1.8 | > 99.5 | approximately 67 h | eight | –
2 | CC(=O)Nc1cccc(-n2c(=O)n(C3CC3)c(=O)c3c(Nc4ccc(I)cc4F)n(C)c(=O)c(C)c32)c1 [trametinib] | 3.7 | 21 (77.8) n (%) | 18 (66.7) n (%) | 17 (63.0) n (%) | 3 (11.1) n (%) | 61.9 | 5.83 | 417 | 0.709 | 0.913 | – | – | – | 3.7

Reference: PMC9558510 (Cancers, 2022)
